According to PubChem BioAssay AID248 (DTP/NCI, 2004):
Several values for one entry are separate records, joined by “and”; a condition that tells them apart may be missing. Identical values can stand only once. Inconclusive results and toxic doses are left out. No stated cut-off is given here; in the data, active means T/C of 150% or more; inactive means T/C below 125%.

System: L1210 leukemia ip in BDF1 mice, survival T/C
Assay: NCI In Vivo Anticancer Drug Screen. Data for tumor model L1210 Leukemia (intraperitoneal) in B6D2F1 (BDF1) mice
Conditions: endpoint: mean survival time, higher = longer survival
Procedure, shortened: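 Each compound was tested against a transplantable tumor grown in mice. The endpoint was survival, with treated animals benchmarked against vehicle controls as a simple ratio.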

[1] = dose: 100.0 mg/kg/injection, schedule: Q04DX003 (ip), vehicle: saline
[2] = dose: 200.0 mg/kg/injection, schedule: Q04DX003 (ip), vehicle: saline
[3] = dose: 400.0 mg/kg/injection, schedule: Q04DX003 (ip), vehicle: saline
[4] = dose: 100.0 mg/kg/injection, schedule: Q01DX001 (ip), vehicle: saline
[5] = dose: 200.0 mg/kg/injection, schedule: Q01DX001 (ip), vehicle: saline
[6] = dose: 400.0 mg/kg/injection, schedule: Q01DX001 (ip), vehicle: saline
[7] = dose: 50.0 mg/kg/injection, schedule: Q04DX003 (ip), vehicle: saline with Tween-80

Measured: T/C

CC(=O)Nc1ccc(OC(=O)Nc2ccc(Cl)cc2C(F)(F)F)cc1
inactive: dose: 50.0 mg/kg/injection, schedule: Q01DX009 (ip), vehicle: saline with Tween-80 93 % of control | dose: 100.0 mg/kg/injection, schedule: Q01DX009 (ip), vehicle: saline with Tween-80 100 % of control | dose: 200.0 mg/kg/injection, schedule: Q01DX009 (ip), vehicle: saline with Tween-80 104 % of control

O/N=c1\ncn(O)c2nc[nH]c12
inactive: dose: 75.0 mg/kg/injection, schedule: Q01DX001 (ip), vehicle: saline 93 % of control | dose: 150.0 mg/kg/injection, schedule: Q01DX001 (ip), vehicle: saline 103 % of control | dose: 300.0 mg/kg/injection, schedule: Q01DX001 (ip), vehicle: saline 93 % of control | dose: 300.0 mg/kg/injection, schedule: Q01DX009 (ip), vehicle: saline 123 % of control

N#CCC(=O)NCc1cnccn1
inactive: dose: 50.0 mg/kg/injection, schedule: Q01DX005 (ip), vehicle: saline 110 % of control | dose: 100.0 mg/kg/injection, schedule: Q01DX005 (ip), vehicle: saline 104 % of control | [1] 103 % of control | dose: 200.0 mg/kg/injection, schedule: Q01DX005 (ip), vehicle: saline 105 % of control | [2] 103 % of control | dose: 400.0 mg/kg/injection, schedule: Q01DX005 (ip), vehicle: saline 105 % of control | [3] 101 % of control

O=C(N/N=C/c1cc(Cl)ccc1O)c1cccc2ccccc12
inactive: [4] 94 % of control | [5] 92 % of control | [6] 86 % of control

Cn1cnc(N)c1C(=N)[Se]
inactive: dose: 6.25 mg/kg/injection, schedule: Q01DX009 (ip), vehicle: water 86 % of control | dose: 12.5 mg/kg/injection, schedule: Q04DX003 (ip), vehicle: water 108 % of control | dose: 25.0 mg/kg/injection, schedule: Q04DX003 (ip), vehicle: water 95 % of control

O=C(N/N=C/c1ccc(Cl)c(Cl)c1)c1cccc2ccccc12
inactive: [4] 87 % of control | [6] 90 % of control

O=C(C=C(C(F)(F)F)C(F)(F)F)c1ccc(Cl)cc1
inactive: dose: 3.13 mg/kg/injection, schedule: Q01DX009 (ip), vehicle: saline with Tween-80 101 % of control | dose: 6.25 mg/kg/injection, schedule: Q01DX009 (ip), vehicle: saline with Tween-80 97 % of control | dose: 12.5 mg/kg/injection, schedule: Q01DX009 (ip), vehicle: saline with Tween-80 100 % of control | dose: 25.0 mg/kg/injection, schedule: Q01DX009 (ip), vehicle: saline with Tween-80 97 % of control and 101 % of control | [7] 91 % of control | dose: 100.0 mg/kg/injection, schedule: Q04DX003 (ip), vehicle: saline with Tween-80 86 % of control | dose: 200.0 mg/kg/injection, schedule: Q04DX003 (ip), vehicle: saline with Tween-80 86 % of control

Cc1ccc(C2(C)CC/C(=N\NC(=O)c3ccccc3)c3cc(C)c(C)cc32)cc1C (stereo not drawn)
inactive: [4] 97 % of control | [5] 98 % of control | [6] 104 % of control

CC(=O)Nc1ccc2c(c1)C(=O)c1ccccc1-2
inactive: [1] 96 % of control | [2] 100 % of control | [3] 94 % of control

Cc1ccc(Nc2cc(N)nc(N)n2)cc1
inactive: dose: 25.0 mg/kg/injection, schedule: Q01DX Z (ip), vehicle: methylcellulose (MC) 100 % of control

CC[PH+]1c2ccccc2Oc2ccccc21.CC[PH+]1c2ccccc2Oc2ccccc21.[Br][Pd][Br]
inactive: dose: 12.5 mg/kg/injection, schedule: Q04DX003 (ip), vehicle: saline with Tween-80 98 % of control | dose: 25.0 mg/kg/injection, schedule: Q04DX003 (ip), vehicle: saline with Tween-80 98 % of control | [7] 98 % of control

CCOc1c(OC)c2c3c(c(-c4c(C)cc5c(C(C)C)c(OCC)c(OC)c6c5c4OC6OC)c(C)cc3c1C(C)C)OC2OC (stereo not drawn)
inactive: dose: 100.0 mg/kg/injection, schedule: Q01DX001 (ip), vehicle: Klucel (hydroxypropylcellulose) (HPC) 94 % of control | dose: 200.0 mg/kg/injection, schedule: Q01DX001 (ip), vehicle: Klucel (hydroxypropylcellulose) (HPC) 93 % of control | dose: 400.0 mg/kg/injection, schedule: Q01DX001 (ip), vehicle: Klucel (hydroxypropylcellulose) (HPC) 100 % of control

CCc1cc(C(C)(C)C)c(O)c(C(C)(C)C)c1
inactive: dose: 100.0 mg/kg/injection, schedule: Q01DX001 (ip), vehicle: saline with Tween-80 95 % of control | dose: 200.0 mg/kg/injection, schedule: Q01DX001 (ip), vehicle: saline with Tween-80 102 % of control | dose: 400.0 mg/kg/injection, schedule: Q01DX001 (ip), vehicle: saline with Tween-80 95 % of control

c1ccc2c(c1)ccc1[nH]c3c(c12)CCCC3
inactive: dose: 100.0 mg/kg/injection, schedule: Q01DX001 (ip), vehicle: carboxymethylcellulose (CMC) 95 % of control | dose: 200.0 mg/kg/injection, schedule: Q01DX001 (ip), vehicle: carboxymethylcellulose (CMC) 90 % of control | dose: 400.0 mg/kg/injection, schedule: Q01DX001 (ip), vehicle: carboxymethylcellulose (CMC) 97 % of control
